Usually inhibition stands for the relative decrease from the control value, in per cent. A word on the IC50: it is the midpoint of a concentration-inhibition curve.

The target in this test is T1, RXRalpha (Homo sapiens, UniProt P19793).
T1 construct: expressed in transfected cells; host or cells: Cos7 monkey kidney cells
T1 sequence (P19793 1-462): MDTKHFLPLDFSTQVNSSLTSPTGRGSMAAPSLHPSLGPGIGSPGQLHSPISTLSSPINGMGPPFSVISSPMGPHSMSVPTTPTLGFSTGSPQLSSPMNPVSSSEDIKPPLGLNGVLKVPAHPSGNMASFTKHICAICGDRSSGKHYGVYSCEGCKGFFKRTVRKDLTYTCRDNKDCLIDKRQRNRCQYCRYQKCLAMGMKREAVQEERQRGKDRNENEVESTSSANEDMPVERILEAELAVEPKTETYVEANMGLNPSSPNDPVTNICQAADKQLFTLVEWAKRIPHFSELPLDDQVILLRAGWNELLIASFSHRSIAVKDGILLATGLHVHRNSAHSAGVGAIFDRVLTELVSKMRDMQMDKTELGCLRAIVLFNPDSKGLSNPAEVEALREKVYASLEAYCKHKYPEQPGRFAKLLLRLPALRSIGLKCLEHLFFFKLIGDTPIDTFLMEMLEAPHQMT
In words: RXR antagonist transactivation test (cotransfection pSG5-RXRalpha / CRBPII-tk-Luc, luciferase). Conditions: Cos7 cells; for inhibition at 1 µM: COS-7, test compound at 10^−6M final, 3 nM reference agonist, treatment 18 h, luciferase activity, read-out: % of inhibition of the induction obtained with the agonist alone; for IC50: in the presence of 3 nM agonist 6-[1-(3,5,5,8,8-pentamethyl-5,6,7,8-tetrahydro-2-naphthalenyl)cyclopropyl]nicotinic acid, 5 concentrations 10^−5 to 10^−9 M, read-out: IC50 (dose required to achieve 50% inhibition of the agonist activity). In kind it is cell-based. The text has this:
a) Determination of the IC50 values of the antagonist compounds
The dose-response curve obtained makes it possible to determine the IC50 value which is specific to the compound.
b) Test of RXR Antagonist Transactivation
The properties of inhibition of the activation of the RXR response elements (RXRE) can be determined by recognized methods of the art.
The receptor expression plasmid pSG5-RXRalpha and the reporter plasmid CRBPII-tk-Luc are introduced into the Cos7 monkey kidney cell line by the method of coprecipitation with calcium phosphate described in Molecular Cloning: A laboratory manual (Sambrook et al. eds. Cold Spring Harbor Lab. Publ. 1989). […] The test compound is added at 10^−6M final. After treatment for 18 h, the cells are rinsed with PBS and lysed in 0.1M KPO4 (pH 7.8), 1.0% Triton X100, 1.0 mM DTT, 1 mM EDTA. The luciferase activity of the cell lysatesis measured as described by deWet et al. in Mol. Cell. Biol. 7:725 (1987).

With `CCCOc1cc([Se]C#CC(C)=CC(=O)O)cc2c1C(C)(C)CCC2(C)C` [EXAMPLE 12, 3-Methyl-5-(5,5,8,8-tetramethyl-4-propoxy-5,6,7,8-tetrahydronaphthalen-2-ylselenyl)pent-2-en-4-ynoic Acid], the inhibition at 1 µM stood at 92% and the IC50 came to 71 nM.

Regarding `COCOc1cc([Se]C#CC(C)=CC(=O)O)cc2c1C(C)(C)CCC2(C)C` [EXAMPLE 14, 5-(4-Methoxymethoxy-5,5,8,8-tetramethyl-5,6,7,8-tetrahydronaphthalen-2-ylselenyl)-3-methylpent-2-en-4-ynoic Acid], the inhibition at 1 µM came out at 61% and the IC50 was 471 nM.

With `CCCOc1cc2c(cc1[Se]C#CC(C)=CC(=O)O)C(C)(C)CCC2(C)C` [EXAMPLE 10, 3-Methyl-5-(5,5,8,8-tetramethyl-3-propoxy-5,6,7,8-tetrahydronaphthalen-2-ylselenyl)pent-2-en-4-ynoic Acid], the inhibition at 1 µM is 57% and the IC50 was found to be 671 nM.
